Experimental data as given in patent US7713994B2 (Wyeth LLC, priority 2005, dated 2010).
pIC50: −log10 of the molar value.

Assays:
cyclin E/CDK2 enzyme = molecular target: T1, cyclin E/CDK2 enzyme (Homo sapiens, UniProt P24941); assay: CDK2 ELISA kinase assay (phospho-Rb ser 795 detection); format: biochemical; details: In Vitro Enzyme Assays, read-out: CDK2 IC50
T1 construct: made in house; host or cells: Sf9 insect cells, recombinant baculovirus
How it was run: (§1)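 Screening was done at 10 ug/ml compound. Each partially purified cyclin/CDK complex, produced in baculovirus-infected Sf9 cells, phosphorylated a coated GST-Rb C-terminal fragment with 200 μM ATP, and Ser795 phosphorylation was quantified by HRP-ELISA at 450 nm.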

HCT-116 = assay: Cytotoxicity assay (SRB), HCT-116; format: cell-based; details: Homo sapiens, HCT-116, 72 h, HCT116 cells, SRB, three days; read-out: In Vitro Cellular Activity IC50 HCT116
How it was run: (§2)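 BT474 (12000 cells/well) was treated for 6 days, whereas HCT-116 (4000), LoVo (6000) and MCF-7 (6000) were treated for 3 days, all in RPMI 1640 containing 5% FBS. Surviving-cell percentage came from SRB dye binding measured at 540 nm.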

cyclin B/CDK1 enzyme = molecular target: T2, cyclin B/CDK1 enzyme (Homo sapiens, UniProt P06493); assay: CDK1 ELISA kinase assay (phospho-Rb ser 795 detection); format: biochemical; details: In Vitro Enzyme Assays, read-out: CDK1 IC50
T2 construct: purchased New England BioLabs; host or cells: Sf9 insect cells, recombinant baculovirus
T2 sequence (P06493 whole entry): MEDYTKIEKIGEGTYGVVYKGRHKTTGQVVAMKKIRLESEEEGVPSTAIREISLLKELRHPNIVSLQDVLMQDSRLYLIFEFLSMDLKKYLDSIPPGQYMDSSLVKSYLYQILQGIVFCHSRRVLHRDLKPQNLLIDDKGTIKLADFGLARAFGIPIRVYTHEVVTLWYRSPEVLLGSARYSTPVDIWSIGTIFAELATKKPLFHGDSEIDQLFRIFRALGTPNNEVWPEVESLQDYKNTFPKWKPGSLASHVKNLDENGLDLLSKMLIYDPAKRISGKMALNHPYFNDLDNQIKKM
T2 sequence (P14635 whole entry partner): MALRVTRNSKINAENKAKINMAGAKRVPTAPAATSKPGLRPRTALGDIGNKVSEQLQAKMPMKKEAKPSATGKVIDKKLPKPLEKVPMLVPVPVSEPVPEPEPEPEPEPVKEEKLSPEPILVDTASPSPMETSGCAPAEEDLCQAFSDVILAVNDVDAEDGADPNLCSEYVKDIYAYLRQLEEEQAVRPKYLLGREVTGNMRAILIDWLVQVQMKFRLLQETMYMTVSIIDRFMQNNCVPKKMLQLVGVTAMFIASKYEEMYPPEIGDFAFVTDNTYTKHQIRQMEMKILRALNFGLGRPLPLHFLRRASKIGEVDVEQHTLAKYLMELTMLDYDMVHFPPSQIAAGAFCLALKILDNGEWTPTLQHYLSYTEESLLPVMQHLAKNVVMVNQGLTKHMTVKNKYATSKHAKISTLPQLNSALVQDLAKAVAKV
How it was run: as §1

BT474 = assay: Cytotoxicity assay (SRB), BT474; format: cell-based; details: Homo sapiens, BT-474, 144 h, BT474 cells, SRB, 6 days; read-out: In Vitro Cellular Activity IC50 BT474
How it was run: as §2

MCF-7 = assay: Cytotoxicity assay (SRB), MCF-7; format: cell-based; details: Homo sapiens, MCF7, 72 h, MCF-7 cells, SRB, three days; read-out: In Vitro Cellular Activity IC50 MCF-7
How it was run: as §2

LoVo = assay: Cytotoxicity assay (SRB), LoVo; format: cell-based; details: Homo sapiens, LoVo, 72 h, LoVo cells, SRB, three days; read-out: In Vitro Cellular Activity IC50 LOVO
How it was run: as §2

cyclin D1/cdk 4 enzyme = molecular target: T3, cyclin D1/cdk 4 enzyme (Homo sapiens, UniProt P11802); assay: CDK4 ELISA kinase assay (phospho-Rb ser 795 detection); format: biochemical; details: In Vitro Enzyme Assays, 200 μM ATP, read-out: CDK4 IC50
T3 construct: made in house; host or cells: Sf9 insect cells, recombinant baculovirus
T3 sequence (P11802 whole entry, species assumed): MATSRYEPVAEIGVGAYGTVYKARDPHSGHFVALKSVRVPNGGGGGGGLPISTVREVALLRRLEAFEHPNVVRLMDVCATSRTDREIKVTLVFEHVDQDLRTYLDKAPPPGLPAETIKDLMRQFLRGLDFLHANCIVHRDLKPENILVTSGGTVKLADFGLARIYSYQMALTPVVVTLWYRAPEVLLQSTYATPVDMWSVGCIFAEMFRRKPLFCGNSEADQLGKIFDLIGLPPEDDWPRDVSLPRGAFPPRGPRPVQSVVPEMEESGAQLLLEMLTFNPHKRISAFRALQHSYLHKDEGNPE
T3 sequence (P24385 whole entry partner, species assumed): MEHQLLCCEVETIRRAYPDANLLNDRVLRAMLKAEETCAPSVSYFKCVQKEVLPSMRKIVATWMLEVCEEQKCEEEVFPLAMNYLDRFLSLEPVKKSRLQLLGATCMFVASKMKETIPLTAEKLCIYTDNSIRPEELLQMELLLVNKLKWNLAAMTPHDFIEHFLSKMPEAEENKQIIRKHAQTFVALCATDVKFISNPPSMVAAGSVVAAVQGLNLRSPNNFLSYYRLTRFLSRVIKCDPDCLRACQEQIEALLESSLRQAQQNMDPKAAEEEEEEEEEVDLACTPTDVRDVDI
How it was run: as §1

SMILES | pIC50 (cyclin E/CDK2 enzyme) | melting point | pIC50 (HCT-116) | pIC50 (cyclin B/CDK1 enzyme) | pIC50 (BT474) | pIC50 (MCF-7) | pIC50 (LoVo) | pIC50 (cyclin D1/cdk 4 enzyme)
CC1CCCN1Cc1ccc(N/C=C2\C(=O)NC(=O)c3ccc(-c4ccc(F)cc4)cc32)cc1 (stereo not shown) [Example 289, (4Z)-6-(4-Fluorophenyl)-4-[({4-[(2-methylpyrrolidin-1-yl)methyl]phenyl}amino)-methylene]isoquinoline-1,3(2H,4H)-dione] | < 4.30 | 165 to 166 °C | 5.66 | < 4.30 | 5.89 | 6.05 | 5.13 | 6.51
CN1CCN(c2ccc(N/C=C3\C(=O)NC(=O)c4ccc(-c5ccc(F)cc5)cc43)cc2F)CC1 [Example 290, (4Z)-4-({[3-Fluoro-4-(4-methylpiperazin-1-yl)phenyl]amino}methylene)-6-(4-fluorophenyl)isoquinoline-1,3(2H,4H)-dione] | < 4.30 | 166 to 167 °C | 5.74 | < 4.30 | 5.60 | 5.64 | 5.27 | 6.49
CC1CCCN1Cc1ccc(N/C=C2\C(=O)NC(=O)c3ccc(-c4ccoc4)cc32)cc1 (stereo not shown) [Example 291, (4Z)-6-(3-Furyl)-4-[({4-[(2-methylpyrrolidin-1-yl)methyl]phenyl}amino)methylene]-isoquinoline-1,3(2H,4H)-dione] | < 4.30 | 165 to 166 °C | 5.64 | < 4.30 | 6.00 | 6.23 | 5.72 | 6.72
CN1CCN(c2ccc(N/C=C3\C(=O)NC(=O)c4ccc(I)cc43)cc2F)CC1 [Example 295, (4Z)-4-({[3-Fluoro-4-(4-methylpiperazin-1-yl)phenyl]amino}methylene)-6-iodoisoquinoline-1,3(2H,4H)-dione] | < 4.30 | 211 to 212 °C | 5.51 | < 4.30 | 5.51 | 5.74 | 5.43 | 5.82
O=C1NC(=O)c2ccc(I)cc2/C1=C/Nc1ccc(CN2CCOCC2)cc1 [Example 296, (4Z)-6-Iodo-4-({[4-(morpholin-4-ylmethyl)phenyl]amino}methylene)isoquinoline-1,3(2H,4H)-dione] | < 4.30 | 186 to 187 °C | 5.40 | < 4.30 | 5.21 | 5.59 | 5.30 | 5.68
CN1CCN(c2ccc(N/C=C3\C(=O)NC(=O)c4ccc(-c5ccoc5)cc43)cc2F)CC1 [Example 297, (4Z)-4-({[3-Fluoro-4-(4-methylpiperazin-1-yl)phenyl]amino}methylene)-6-(3-furyl)isoquinoline-1,3(2H,4H)-dione] | < 4.30 | 203 to 204 °C | 5.66 | < 4.30 | 5.92 | 6.02 | 5.70 | 7.10
COC[C@@H]1CCCN1Cc1ccc(N/C=C2\C(=O)NC(=O)c3ccc(-c4ccc(F)cc4)cc32)cc1 [Example 299, (4Z)-6-(4-Fluorophenyl)-4-{[(4-{[(2S)-2-(methoxymethyl)pyrrolidin-1-yl]methyl}phenyl)amino]methylene}isoquinoline-1,3(2H,4H)-dione] | < 4.30 | 162 to 163 °C | 5.52 | < 4.30 | 5.70 | 6.10 | 5.11 | 6.72
O=C1NC(=O)c2ccc(-n3cccc3)cc2C1=CNCc1cc(=O)c(O)co1 [Example 312, 4-{[(5-Hydroxy-4-oxo-4H-pyran-2-ylmethyl)-amino]-methylene}-6-pyrrol-1-yl-4H-isoquinoline-1,3-dione] | 4.67 | 310 to 312 °C (dec.) | < 4.30 | < 4.30 | 4.41 | < 4.30 | < 4.30 | 6.57
COc1coc(CNC=C2C(=O)NC(=O)c3ccc(Br)cc32)cc1=O [Example 316, 6-Bromo-4-{[(5-methoxy-4-oxo-4H-pyran-2-ylmethyl)-amino]-methylene}-4H-isoquinoline-1,3-dione] | 4.77 | 259 to 261 °C (dec.) | 5.05 | < 4.30 | 5.31 | 5.05 | 5.24 | 5.89
COc1coc(CNC=C2C(=O)NC(=O)c3ccc(-n4cccc4)cc32)cc1=O [Example 317, 4-{[(5-Methoxy-4-oxo-4H-pyran-2-ylmethyl)-amino]-methylene}-6-pyrrol-1-yl-4H-isoquinoline-1,3-dione] | < 4.30 | 251 to 254 °C (dec.) | 4.92 | < 4.30 | 5.28 | 5.08 | 5.33 | 7.40
C[C@@H]1CN(c2ccc(N/C=C3\C(=O)NC(=O)c4ccc(I)cc43)cc2F)C[C@H](C)N1 [Example 319, (4Z)-4-[({4-[(3R,5S)-3,5-Dimethylpiperazin-1-yl]-3-fluorophenyl}amino)methylene]-6-iodoisoquinoline-1,3(2H,4H)-dione] | < 4.30 | 173 to 174 °C | 5.82 | < 4.30 | 5.51 | 5.59 | 5.68 | 5.85
C[C@@H]1CN(c2ccc(N/C=C3\C(=O)NC(=O)c4ccc(-c5ccoc5)cc43)cc2F)C[C@H](C)N1 [Example 324, (4Z)-4-[({4-[(3R,5S)-3,5-Dimethylpiperazin-1-yl]-3-fluorophenyl}amino)methylene]-6-(3-furyl)isoquinoline-1,3(2H,4H)-dione] | < 4.30 | 222 to 223 °C | 6.02 | < 4.30 | 6.13 | 6.08 | 5.48 | 6.77
C[C@@H]1CN(c2ccc(N/C=C3\C(=O)NC(=O)c4ccc(-c5ccsc5)cc43)cc2F)C[C@H](C)N1 [Example 325, (4Z)-4-[({4-[(3R,5S)-3,5-Dimethylpiperazin-1-yl]-3-fluorophenyl}amino)methylene]-6-thien-3-ylisoquinoline-1,3(2H,4H)-dione] | < 4.30 | 214 to 215 °C | 6.14 | 4.40 | 5.92 | 6.00 | 5.62 | 6.85
C[C@@H]1CN(c2ccc(N/C=C3\C(=O)NC(=O)c4ccc(-c5ccc(F)cc5)cc43)cc2F)C[C@H](C)N1 [Example 326, (4Z)-4-[({4-[(3R,5S)-3,5-Dimethylpiperazin-1-yl]-3-fluorophenyl}amino)methylene]-6-(4-fluorophenyl)isoquinoline-1,3(2H,4H)-dione] | < 4.30 | 182 to 183 °C | 6.00 | 4.50 | 6.01 | 5.74 | 5.43 | 5.04
